# Source: patent US20140371244A1, “METHOD FOR TREATING PROSTATE CANCER BY USE OF PHARMACEUTICAL COMPOSITION CONTAINING A3 ADENOSINE RECEPTOR AGONIST” (priority 2009, published 2014)
# Legend:
# TNF-α = TNF-α secretion (ELISA) and mRNA expression (RT-PCR) in LPS-stimulated RAW 264.7 cells; assay type: cell-based, mouse
# Description: TNF-α is a cytokine whose expression increases in cells stimulated by LPS, and it influences the expression of IL-1β and the progression of inflammatory reactions. Thus, the effect of the inventive composition on the expression of TNF-α was examined. Specifically, RAW 264.7 cells were pretreated with each of 20, 10 and 5 μM of the inventive composition (thio-Cl-IB-MECA) and treated with LPS (1 μg/ml) to induce inflammatory reactions. Then, the cells were incubated for 6 hours, after which the supernatant was taken and the amount of TNF-α secreted into the supernatant was measured using an ELISA ([…]) kit.
# In addition, in order to examine whether TNF-α is expressed at the gene level, the effect of the inventive composition on the expression of TNF-α mRNA was also tested using the RT-PCR method.
# PC-3 cells = assay: Western blot of cell cycle regulation-related proteins and Wnt signaling in PC-3 cells; assay type: cell-based, human
# Description: A test was carried out to examine whether the inhibitory effects of thio-Cl-IB-MECA on the proliferation of LNCaP cells and PC-3 cells are attributable to regulation of the Wnt signaling pathway.
# Specifically, each type of LNCaP cells and PC-3 cells was diluted with 10% FBS-containing medium to a density of 1.0×10^6 cells per 100 mm culture dish and cultured under the conditions of 37° C. and 5% CO2 for 24 hours, followed by washing twice with PBS. Thio-Cl-IB-MECA was diluted in 10% FBS-containing medium at required concentration, and then 10 ml of the culture medium prepared in the 100 mm culture dish was added thereto and cultured for a given period. The non-adherent cells and adherent cells in the cell medium were collected and washed twice with PBS, after which the cells were suspended in boiling cell lysis buffer and heated at 100° C. for 5 minutes. The cells were cooled and then stored at […], and the stored cells were thawed at 37° C. immediately before use in protein quantification and electrophoresis. Protein quantification was performed using the BCA method, and […] of protein was electrophoresed on 8-12% SDS-polyacrylamide gel at 150 V for 110 minutes. The gel at the desired site was cut and transferred to a PVDF (polyvinylidene fluoride) for 1 hour, and after which it was washed twice with PBST and stirred in blocking buffer at room temperature for 1 hour. Then, the membrane was washed three times with PBST for 5 minutes each time, after which primary antibody was diluted at a ratio of 1:1,000-1:2,000 with 3% skimmed milk/PBST, and it was sealed together with the membrane and incubated with stirring at 4° C. for 12 hours or more. The membrane was washed 2-3 times with PBST for 5 minutes each time, after which HRP-conjugated secondary antibody was diluted at a ratio of 1:1,500-1:2,000 and incubated with the membrane at room temperature for 2-3 hours. The membrane was washed three times with PBST for 5 minutes each time and treated with a Western blot substrate (WESTSAVE Up™), and the produced luminescence was examined using LAS-3000.
# iNOS = assay: Expression of iNOS protein and gene (Western blot, RT-PCR) in LPS-stimulated RAW 264.7 cells; assay type: cell-based, mouse
# Description: The effects of the inventive composition on the expression of iNOS protein and mRNA were examined by Western blot analysis and RT-PCR. Specifically, RAW 264.7 cells were diluted with 10% FBS-containing medium to a density of 1×10^6 cells per 100 mm culture dish and cultured under the conditions of 37° C. and 5% CO2 for 24 hours, followed by washing twice with PBS. The cells were pretreated with each of 20 μM (the highest concentration showing no cytotoxicity), 10 μM and 5 μM of thio-Cl-IB-MECA in 10% FBS-containing medium, and inflammatory reactions in the cells were induced by LPS (1 μg/ml), followed by culture for 18 hours. […] The cells were thawed at 37° C. immediately before use and used in protein quantification and electrophoresis.
# Protein quantification was performed using the BCA method, and […] of the protein was electrophoresed on 8-12% SDS-polyacrylamide gel at 150 V for 110 minutes. […] The membrane was washed 2-3 times with PBST for 5 minutes each time, after which HRP-conjugated secondary antibody was diluted at a ratio of 1:1,500-1:2,000 and incubated with the membrane at room temperature for 2-3 hours. the membrane was washed three times with PBST for 5 minutes each time and treated with a Western blot substrate (WESTSAVE Up™), and the produced luminescence was examined using LAS-3000. […]
smiles,measurement,setting,value
"CNC(=O)[C@H]1S[C@@H](n2cnc3c(NCc4cccc(I)c4)nc(Cl)nc32)[C@H](O)[C@@H]1O [thio-Cl-IB-MECA, 2-chloro-N^6-(3-iodobenzyl)-4′-thioadenosine-5′-N-methyluronamide]",amount of TNF-α secreted,"TNF-α; ELISA, 5, 10, 20 μM, LPS 1 μg/ml, 6 hours",concentration-dependently inhibited
same,expression of TNF-α mRNA,TNF-α; RT-PCR,also inhibited
same,"Wnt signaling pathway, PC-3",PC-3 cells,inhibited the Wnt signaling pathway
same,"expression and RB phosphorylation of cyclin D, cyclin A, CDK4, c-myc and PCNA, PC-3",PC-3 cells,inhibited the expression and RB phosphorylation
same,"expression of p53 and p27, PC-3",PC-3 cells,increased the expression
same,expression of iNOS gene,"iNOS; RT-PCR, 5, 10 or 20 μM, vs LPS control",inhibited the expression of iNOS gene in a concentration-dependent manner
same,expression of iNOS protein,"iNOS; Western blot, 5, 10, 20 μM, LPS 1 μg/ml, 18 hours",inhibited the expression of iNOS protein in a concentration-dependent manner
